The IC50 is the point on the concentration scale where inhibition reaches its midpoint. High values mean weaker potency, low ones greater potency.

Where only a bound is given, the exact number is not on record here.

Data set [1] has as its target Anti-thrombin (AT3/SERPINC1) (Homo sapiens, UniProt P01008). In words: SERPIN inhibition selectivity, similar enzymatic method. Type of data set: biochemical. Conditions: Ser protease: Thrombin, factor Xa. On the procedure: (§1) Inhibitory effect of IMD-4690 on the activity of PAI-1 was measured by the direct tPA assay. Briefly, recombinant tPA and PAI-1 was mixed with IMD-4690, and then tPA substrate with fluorescent pigment (Pyr-Gly-Arg-MCA) was added in this mixture and incubated. The enzymatic activity was calculated by measuring the fluorescence. The inhibitory activity of IMD-4690 on other enzymes was measured with the similar method.

Data set [2] has as its target α1-anti-trypsin (SERPINA1) (Homo sapiens, UniProt P01009). The description is as above. Type of data set: biochemical. To be noted: Ser protease: Trypsin, Neu-Elastase. On the procedure:
as §1

For data set [3], the target named is T1, α1-anti-chymotrypsin (SERPINA3) (Homo sapiens, UniProt P01011).
T1 sequence (P01011 24-423): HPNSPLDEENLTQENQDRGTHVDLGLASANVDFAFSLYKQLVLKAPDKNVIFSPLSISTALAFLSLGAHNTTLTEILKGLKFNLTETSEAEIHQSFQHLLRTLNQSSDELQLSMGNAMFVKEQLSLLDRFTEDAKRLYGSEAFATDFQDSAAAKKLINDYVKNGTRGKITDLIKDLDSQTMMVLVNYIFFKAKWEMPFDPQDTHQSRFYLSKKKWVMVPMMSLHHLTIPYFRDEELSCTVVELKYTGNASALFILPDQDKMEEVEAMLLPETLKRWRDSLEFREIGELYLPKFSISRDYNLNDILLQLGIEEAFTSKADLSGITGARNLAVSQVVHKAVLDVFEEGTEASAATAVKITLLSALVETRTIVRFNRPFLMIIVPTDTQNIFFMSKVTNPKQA
The description is as above. Type of data set: biochemical. Conditions: Ser protease: Chymotrypsin, Cathepsin G. On the procedure:
as §1

Data set [4] addresses T2, Heparin Cofactor 2 (HC2/SERPIND1) (Homo sapiens, UniProt P05546).
T2 sequence (P05546 20-499): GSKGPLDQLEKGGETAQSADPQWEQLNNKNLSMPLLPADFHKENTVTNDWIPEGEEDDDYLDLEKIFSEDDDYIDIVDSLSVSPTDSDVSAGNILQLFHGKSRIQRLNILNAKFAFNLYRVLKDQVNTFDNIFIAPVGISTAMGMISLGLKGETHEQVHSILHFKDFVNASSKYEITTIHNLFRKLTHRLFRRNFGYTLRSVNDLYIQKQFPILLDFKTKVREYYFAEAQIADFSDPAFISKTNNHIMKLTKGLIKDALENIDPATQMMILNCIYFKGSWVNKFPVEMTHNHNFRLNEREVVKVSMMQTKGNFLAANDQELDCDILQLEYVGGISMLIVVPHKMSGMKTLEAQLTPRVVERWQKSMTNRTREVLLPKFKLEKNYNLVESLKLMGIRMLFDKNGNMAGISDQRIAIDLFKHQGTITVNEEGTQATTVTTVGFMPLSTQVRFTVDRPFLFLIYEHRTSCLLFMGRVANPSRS
The description is as above. In kind it is biochemical. To be noted: Ser protease: Thrombin. On the procedure:
as §1

For data set [5], the target named is T3, α1-anti-plasmin (SERPINF2) (Homo sapiens, UniProt P08697).
T3 sequence (P08697 40-491): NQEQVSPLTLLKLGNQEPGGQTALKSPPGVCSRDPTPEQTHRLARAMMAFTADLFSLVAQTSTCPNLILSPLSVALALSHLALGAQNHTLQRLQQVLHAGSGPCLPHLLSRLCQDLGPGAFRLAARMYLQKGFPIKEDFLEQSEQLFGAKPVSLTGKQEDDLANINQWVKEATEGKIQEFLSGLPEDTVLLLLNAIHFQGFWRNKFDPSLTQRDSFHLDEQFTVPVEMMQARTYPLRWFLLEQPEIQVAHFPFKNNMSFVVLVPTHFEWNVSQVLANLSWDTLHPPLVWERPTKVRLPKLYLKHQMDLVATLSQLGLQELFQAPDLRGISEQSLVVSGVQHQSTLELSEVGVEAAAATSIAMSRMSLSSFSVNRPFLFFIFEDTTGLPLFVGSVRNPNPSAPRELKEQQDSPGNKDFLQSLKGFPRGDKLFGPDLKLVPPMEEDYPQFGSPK
The description is as above. In kind it is biochemical. To be noted: Ser protease: Plasmin. The procedure:
as §1

The target of another data set is PAI-2 (SERPINB2) (Homo sapiens, UniProt P05120). The description is as above. Conditions: Ser protease: uPA. In kind it is biochemical. On the procedure:
as §1

Data set [6] addresses T4, PAI-3 (Protein C inhibitor/SERPINA5) (Homo sapiens, UniProt P05154).
T4 sequence (P05154 26-406): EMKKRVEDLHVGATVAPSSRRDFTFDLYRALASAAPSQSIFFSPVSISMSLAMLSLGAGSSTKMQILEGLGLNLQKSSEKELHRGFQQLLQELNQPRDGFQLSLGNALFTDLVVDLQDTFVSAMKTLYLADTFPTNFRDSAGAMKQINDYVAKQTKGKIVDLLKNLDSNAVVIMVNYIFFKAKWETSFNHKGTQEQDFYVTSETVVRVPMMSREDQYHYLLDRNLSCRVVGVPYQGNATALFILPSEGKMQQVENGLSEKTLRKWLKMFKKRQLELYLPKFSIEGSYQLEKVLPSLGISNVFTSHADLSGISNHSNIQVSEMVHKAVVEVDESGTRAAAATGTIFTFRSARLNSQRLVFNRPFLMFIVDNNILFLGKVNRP
The description is as above. Type of data set: biochemical. Conditions: Ser protease: uPA. On the procedure: as §1

Data set [7] can be described thus: Body weight and adverse effects in Dp-sensitized mice. Type of data set: in vivo, mouse. To be noted: 10 mg/kg i.p. The text has this: Six-week-old female BALB/c mice (15–20 g) were purchased from CLEA Japan Inc. (Tokyo, Japan). Mice were maintained in the animal facility of the University of Tokushima according to the guidelines of the ethics committee of our university. The present study was approved by Institutional Animal Care and Use Committee of the University of Tokushima (Permission Number: 11134). Mice were housed under specific pathogen-free conditions with 12-h light/dark cycle in a temperature-controlled room with free access to food and water. Mice were monitored weekly for body weight and daily for food and water intake and assessed visually for signs of clinical disease including inactivity, labored respiration and ruffled fur.
All mice were sensitized on days 0 and 7 by intraperitoneal injections of 10 μg of Dp dissolved in 500 μL saline and mixed with 1mg of Alum (Sigma-Aldrich Japan). Dp-sensitized mice were challenged intranasally with 10 μg (10 μL) Dp in 70 μL saline on alternate days, 3 days per week, from days 14 to 67. The mice were also treated intraperitoneally with IMD-4690 (10 mg/kg) (Dp/IMD group) or CMC alone (Dp/CMC group) at the same day with Dp challenge. As a control, mice were challenged with saline and given CMC during this period (control/CMC group) (Fig. 1A). Each experiment was performed using six mice per group.

Sequence of PAI-2 (SERPINB2) (P05120 whole entry): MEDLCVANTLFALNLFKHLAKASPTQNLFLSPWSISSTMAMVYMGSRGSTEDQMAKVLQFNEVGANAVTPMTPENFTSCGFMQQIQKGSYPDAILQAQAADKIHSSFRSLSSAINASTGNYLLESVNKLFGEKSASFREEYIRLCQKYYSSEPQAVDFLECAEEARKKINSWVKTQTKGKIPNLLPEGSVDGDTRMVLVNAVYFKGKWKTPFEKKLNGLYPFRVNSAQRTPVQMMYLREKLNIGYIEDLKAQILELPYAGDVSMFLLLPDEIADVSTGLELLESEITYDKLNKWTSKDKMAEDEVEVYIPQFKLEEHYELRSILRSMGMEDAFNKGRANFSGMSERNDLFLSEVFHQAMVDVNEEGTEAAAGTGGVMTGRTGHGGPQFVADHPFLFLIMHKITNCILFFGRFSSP
Sequence of α1-anti-trypsin (SERPINA1) (P01009 25-418): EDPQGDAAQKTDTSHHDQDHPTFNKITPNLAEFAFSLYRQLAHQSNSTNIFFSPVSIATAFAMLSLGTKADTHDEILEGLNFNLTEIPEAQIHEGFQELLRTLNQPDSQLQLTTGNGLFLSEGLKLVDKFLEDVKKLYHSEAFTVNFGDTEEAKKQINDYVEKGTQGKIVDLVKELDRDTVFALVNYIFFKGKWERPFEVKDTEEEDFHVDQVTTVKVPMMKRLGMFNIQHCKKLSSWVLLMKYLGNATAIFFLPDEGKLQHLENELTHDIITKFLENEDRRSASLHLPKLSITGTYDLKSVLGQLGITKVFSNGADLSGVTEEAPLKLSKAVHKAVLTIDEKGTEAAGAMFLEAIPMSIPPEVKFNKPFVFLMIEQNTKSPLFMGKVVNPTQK
Sequence of Anti-thrombin (AT3/SERPINC1) (P01008 33-464): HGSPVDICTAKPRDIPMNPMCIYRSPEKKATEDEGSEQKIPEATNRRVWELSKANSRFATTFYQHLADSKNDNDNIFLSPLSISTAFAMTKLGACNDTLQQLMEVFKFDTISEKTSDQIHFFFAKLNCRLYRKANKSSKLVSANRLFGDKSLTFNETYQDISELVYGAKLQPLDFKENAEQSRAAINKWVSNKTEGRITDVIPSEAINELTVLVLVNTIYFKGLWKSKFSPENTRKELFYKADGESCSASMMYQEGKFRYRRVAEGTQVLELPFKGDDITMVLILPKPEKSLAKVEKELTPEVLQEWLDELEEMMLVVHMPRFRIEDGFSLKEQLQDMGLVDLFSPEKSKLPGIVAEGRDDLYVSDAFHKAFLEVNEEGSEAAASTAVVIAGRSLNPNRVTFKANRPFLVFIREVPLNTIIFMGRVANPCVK

`CC(C)(C)c1ccc(Oc2cc(-c3ccc(OC(F)(F)F)cc3)ccc2OCC(=O)O)cc1` [IMD-4690, 2-[[3-(4-tert-Butylphenoxy)-4'-(trifluoromethoxy) [1,1'-biphenyl]-4-yl]oxy] acetic acid]: the IC50 (in data set [1]; in data set [2]; in data set [3]; in data set [4]; in data set [5]; against PAI-2 (SERPINB2)) was greater than 25 µM each time. Also, the IC50 in data set [6] was greater than 25 µM. In data set [7] (chronic Dp model), the “Adverse effects in the mouse model” value is listed as “could not find any adverse effects”. In data set [7] (Dp-sensitized mice), the “Changes in body weight” value is on record as “did not show any weight loss”.

The record behind these values is publication PMC4364779, “IMD-4690, a Novel Specific Inhibitor for Plasminogen Activator Inhibitor-1, Reduces Allergic Airway Remodeling in a Mouse Model of Chronic Asthma via Regulating Angiogenesis and Remodeling-Related Mediators” (PLoS ONE, 2015).
